According to the supplement of paper PMC10307832:

Key:
Assay in all cases: relative viability (nuclei count vs DMSO), 5 days (fraction); higher = more cells survive
NCI-H727 = system: NCI-H727
Summary of the method: (§1)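 Relative viability divides the nuclei count in treated wells by that in vehicle wells. Lung cancer cell lines were seeded in 1536-well plates, dosed by pin tool the next day, and fixed and stained after 5 days in one step with final 0.05% Triton X-100, 1% formaldehyde and 1 ug/ml Hoechst. Dosing was a single drug or a fixed anchor-drug dose plus five library-drug doses (not always all listed) in √10 steps, and values are medians of duplicate plates imaged at 4×.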

LOU-NH91 = system: LOU-NH91
Summary of the method: as §1

NCI-H23 = system: NCI-H23
Summary of the method: as §1

NCI-H650 = system: NCI-H650
Summary of the method: as §1

NCI-H2405 = system: NCI-H2405
Summary of the method: as §1

ChaGo-K-1 = system: ChaGo-K-1
Summary of the method: as §1

201T = system: 201T
Summary of the method: as §1

EKVX = system: EKVX
Summary of the method: as §1

NCI-H2228 = system: NCI-H2228
Summary of the method: as §1

NCI-H2126 = system: NCI-H2126
Summary of the method: as §1

SW 900 = system: SW 900
Summary of the method: as §1

NCI-H3122 = system: NCI-H3122
Summary of the method: as §1

H3255 = system: H3255
Summary of the method: as §1

COR-L 105 = system: COR-L 105
Summary of the method: as §1

NCI-H661 = system: NCI-H661
Summary of the method: as §1

SK-LU-1 = system: SK-LU-1
Summary of the method: as §1

HARA = system: HARA
Summary of the method: as §1

NCI-H1975 = system: NCI-H1975
Summary of the method: as §1

PC-3 [JPC-3] = system: PC-3 [JPC-3]
Summary of the method: as §1

HCC-827 = system: HCC-827
Summary of the method: as §1

LCLC-103H = system: LCLC-103H
Summary of the method: as §1

NCI-H596 = system: NCI-H596
Summary of the method: as §1

HOP-62 = system: HOP-62
Summary of the method: as §1

## CN1CCN(CCOc2cc(OC3CCOCC3)c3c(Nc4c(Cl)ccc5c4OCO5)ncnc3c2)CC1 [Saracatinib] + O=C(CCCCCCC(=O)Nc1ccccc1)NO [Vorinostat] (partner 1 µM)
NCI-H727; first compound 0.02 µM
  relative viability: 1.12
NCI-H727; first compound 0.2 µM
  relative viability: 0.996
NCI-H727; first compound 0.6325 µM
  relative viability: 1.23
NCI-H727; first compound 2 µM
  relative viability: 0.888
LOU-NH91; first compound 0.02 µM
  relative viability: 0.87
LOU-NH91; first compound 0.2 µM
  relative viability: 0.696
LOU-NH91; first compound 0.6325 µM
  relative viability: 0.903
LOU-NH91; first compound 2 µM
  relative viability: 0.628
NCI-H23; first compound 0.02 µM
  relative viability: 0.539
NCI-H23; first compound 0.6325 µM
  relative viability: 0.658
NCI-H23; first compound 2 µM
  relative viability: 0.442
NCI-H650; first compound 0.02 µM
  relative viability: 0.5
NCI-H650; first compound 0.2 µM
  relative viability: 0.365
NCI-H650; first compound 0.6325 µM
  relative viability: 0.384
NCI-H650; first compound 2 µM
  relative viability: 0.857
NCI-H2405; first compound 0.02 µM
  relative viability: 0.89
NCI-H2405; first compound 0.2 µM
  relative viability: 0.788
NCI-H2405; first compound 0.6325 µM
  relative viability: 0.847
NCI-H2405; first compound 2 µM
  relative viability: 0.441
ChaGo-K-1; first compound 0.02 µM
  relative viability: 0.797
ChaGo-K-1; first compound 0.2 µM
  relative viability: 0.55
ChaGo-K-1; first compound 0.6325 µM
  relative viability: 0.785
ChaGo-K-1; first compound 2 µM
  relative viability: 0.65
201T; first compound 0.02 µM
  relative viability: 0.971
201T; first compound 0.2 µM
  relative viability: 0.868
201T; first compound 0.6325 µM
  relative viability: 0.799
201T; first compound 2 µM
  relative viability: 0.658
EKVX; first compound 0.02 µM
  relative viability: 0.762
EKVX; first compound 0.2 µM
  relative viability: 0.474
EKVX; first compound 0.6325 µM
  relative viability: 0.817
EKVX; first compound 2 µM
  relative viability: 0.494
NCI-H2228; first compound 0.02 µM
  relative viability: 0.8
NCI-H2228; first compound 0.2 µM
  relative viability: 0.6
NCI-H2228; first compound 0.6325 µM
  relative viability: 0.611
NCI-H2228; first compound 2 µM
  relative viability: 0.633
NCI-H2126; first compound 0.02 µM
  relative viability: 0.936
NCI-H2126; first compound 0.2 µM
  relative viability: 0.647
NCI-H2126; first compound 0.6325 µM
  relative viability: 0.713
NCI-H2126; first compound 2 µM
  relative viability: 0.539
SW 900; first compound 0.02 µM
  relative viability: 0.683
SW 900; first compound 0.2 µM
  relative viability: 0.407
SW 900; first compound 0.6325 µM
  relative viability: 0.676
SW 900; first compound 2 µM
  relative viability: 0.367
NCI-H3122; first compound 0.02 µM
  relative viability: 0.984
NCI-H3122; first compound 0.2 µM
  relative viability: 0.553
NCI-H3122; first compound 0.6325 µM
  relative viability: 0.891
NCI-H3122; first compound 2 µM
  relative viability: 0.788
H3255; first compound 0.02 µM
  relative viability: 0.79
H3255; first compound 0.2 µM
  relative viability: 0.684
H3255; first compound 0.6325 µM
  relative viability: 0.965
H3255; first compound 2 µM
  relative viability: 0.337
COR-L 105; first compound 0.02 µM
  relative viability: 0.879
COR-L 105; first compound 0.2 µM
  relative viability: 0.668
COR-L 105; first compound 0.6325 µM
  relative viability: 0.819
COR-L 105; first compound 2 µM
  relative viability: 0.625
NCI-H661; first compound 0.02 µM
  relative viability: 0.798
NCI-H661; first compound 0.2 µM
  relative viability: 0.808
NCI-H661; first compound 0.6325 µM
  relative viability: 0.81
NCI-H661; first compound 2 µM
  relative viability: 0.693
SK-LU-1; first compound 0.02 µM
  relative viability: 0.758
SK-LU-1; first compound 0.2 µM
  relative viability: 0.657
SK-LU-1; first compound 0.6325 µM
  relative viability: 0.657
SK-LU-1; first compound 2 µM
  relative viability: 0.509
HARA; first compound 0.02 µM
  relative viability: 0.505
HARA; first compound 0.2 µM
  relative viability: 0.654
HARA; first compound 0.6325 µM
  relative viability: 0.62
HARA; first compound 2 µM
  relative viability: 0.572
NCI-H1975; first compound 0.02 µM
  relative viability: 0.72
NCI-H1975; first compound 0.2 µM
  relative viability: 0.716
NCI-H1975; first compound 0.6325 µM
  relative viability: 0.725
NCI-H1975; first compound 2 µM
  relative viability: 0.563
PC-3 [JPC-3]; first compound 0.02 µM
  relative viability: 0.819
PC-3 [JPC-3]; first compound 0.2 µM
  relative viability: 0.47
PC-3 [JPC-3]; first compound 0.6325 µM
  relative viability: 0.529
PC-3 [JPC-3]; first compound 2 µM
  relative viability: 0.477
HCC-827; first compound 0.02 µM
  relative viability: 0.926
HCC-827; first compound 0.2 µM
  relative viability: 0.643
HCC-827; first compound 0.6325 µM
  relative viability: 0.354
HCC-827; first compound 2 µM
  relative viability: 0.15
LCLC-103H; first compound 0.02 µM
  relative viability: 0.868
LCLC-103H; first compound 0.2 µM
  relative viability: 0.733
LCLC-103H; first compound 0.6325 µM
  relative viability: 0.846
LCLC-103H; first compound 2 µM
  relative viability: 0.762
NCI-H596; first compound 0.02 µM
  relative viability: 0.568
NCI-H596; first compound 0.2 µM
  relative viability: 0.511
NCI-H596; first compound 0.6325 µM
  relative viability: 0.585
NCI-H596; first compound 2 µM
  relative viability: 0.406
HOP-62; first compound 0.02 µM
  relative viability: 0.624
HOP-62; first compound 0.2 µM
  relative viability: 0.611
HOP-62; first compound 0.6325 µM
  relative viability: 0.769
HOP-62; first compound 2 µM
  relative viability: 0.618
